Experimental findings from ChEMBL document CHEMBL3585331, “Recent advances for FLAP inhibitors” (Bioorg Med Chem Lett, 2015) are described below.

Assay [1] concerns Blood. Put plainly: Inhibition of LTB4 production in human whole blood. The class given is functional, tissue-based.
In assay [2] the test system is Blood. The experiment in a line: Inhibition of A23187-induced LTB4 production in human whole blood pre-incubated for 15 mins before A23187 stimulation for another 15 mins. The format is functional, tissue-based.
Assay [3] has as its target T1, Arachidonate 5-lipoxygenase-activating protein (Homo sapiens, UniProt P20292).
T1 sequence (P20292 whole entry): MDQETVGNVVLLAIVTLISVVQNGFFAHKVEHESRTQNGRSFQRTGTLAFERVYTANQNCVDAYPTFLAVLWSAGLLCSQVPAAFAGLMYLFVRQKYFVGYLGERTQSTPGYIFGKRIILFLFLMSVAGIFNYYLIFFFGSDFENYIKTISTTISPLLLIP
The experiment in a line: Binding affinity to FLAP (unknown origin).

For the compound `CC(C)Cc1ccc(C(C)c2nc3ccccc3n2Cc2ccccc2Cl)cc1` (stereo unspecified), the IC50 (in general, the point on the concentration scale where inhibition reaches its midpoint) in assay [1] was 120 nM.
Still for that read-out and setting: to `CC(C)C(C)(c1ccc(-c2ccc(C(C)(C)O)nn2)cc1)c1ccc(OCc2ccccn2)cn1` (stereo unspecified) belongs 12 nM.
For `Nc1cnc(-c2ccc(C3CCC3)c(Oc3ncccn3)c2F)cn1`, the IC50 in assay [2] came to 66 nM.
Take `CC(C)(O)CNC(=O)c1ccc(C2(c3ccc(-c4cnc(N)cn4)cc3)CCCO2)cn1` (stereo unspecified): half-maximal inhibition in assay [1] (IC50) required 62 nM.
In the case of `CC(C)(C)Sc1c(CC(C)(C)C(=O)O)n(Cc2ccc(Cl)cc2)c2ccc(OCc3ccc4ccccc4n3)cc12` [QUIFLAPON], the concentration for half-maximal inhibition (IC50) in assay [3] is 36 nM; in assay [1] it was 500 nM.
